Data from PMC7156458, “Synthetic biology based construction of biological activity-related library of fungal decalin-containing diterpenoid pyrones” (Nature Communications, 2020).

Biological target: Aβ42 (Homo sapiens, UniProt P05067)
Assay: Th-T (thioflavin-T) assay of Aβ42 aggregation
Format: biochemical
Conditions: for Th-T assay plate reading, mean of three wells (Supplementary Fig. 47): source data, Ab alone and No Ab as controls

Sequence of Aβ42 (P05067 672-713): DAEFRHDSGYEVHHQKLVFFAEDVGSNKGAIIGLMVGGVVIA

C=C1CCC2C(C)(CC(=O)C=C(C)C)C(O)CCC2(C)C1Cc1c(OC)oc(CO)c(C)c1=O (centres unmarked) [Compound 19]
Th-T fluorescence, mean of three wells (Aβ42 aggregation time course, reading M117): 3.6075 | Th-T fluorescence, mean of three wells (Aβ42 aggregation time course, reading M118): 3.626 | Th-T fluorescence, mean of three wells (Aβ42 aggregation time course, reading M119): 3.587 | Th-T fluorescence, mean of three wells (Aβ42 aggregation time course, reading M120): 3.625 | Th-T fluorescence, mean of three wells (Aβ42 aggregation time course, reading M121): 3.6213 | Th-T fluorescence, mean of three wells (Aβ42 aggregation time course, reading M122): 3.6222 | Th-T fluorescence, mean of three wells (Aβ42 aggregation time course, reading M123): 3.606 | Th-T fluorescence, mean of three wells (Aβ42 aggregation time course, reading M124): 3.5846 | Th-T fluorescence, mean of three wells (Aβ42 aggregation time course, reading M125): 3.61 | Th-T fluorescence, mean of three wells (Aβ42 aggregation time course, reading M126): 3.596 | Th-T fluorescence, mean of three wells (Aβ42 aggregation time course, reading M127): 3.587 | Th-T fluorescence, mean of three wells (Aβ42 aggregation time course, reading M128): 3.613 | Th-T fluorescence, mean of three wells (Aβ42 aggregation time course, reading M129): 3.627 | Th-T fluorescence, mean of three wells (Aβ42 aggregation time course, reading M130): 3.59 | Th-T fluorescence, mean of three wells (Aβ42 aggregation time course, reading M131): 3.596 | Th-T fluorescence, mean of three wells (Aβ42 aggregation time course, reading M132): 3.652 | Th-T fluorescence, mean of three wells (Aβ42 aggregation time course, reading M133): 3.618 | Th-T fluorescence, mean of three wells (Aβ42 aggregation time course, reading M134): 3.586 | Th-T fluorescence, mean of three wells (Aβ42 aggregation time course, reading M135): 3.587 | Th-T fluorescence, mean of three wells (Aβ42 aggregation time course, reading M136): 3.617 | Th-T fluorescence, mean of three wells (Supplementary Fig. 47, reading M137): 3.599 | Th-T fluorescence, mean of three wells (Supplementary Fig. 47, reading M138): 3.596 | Th-T fluorescence, mean of three wells (Supplementary Fig. 47, reading M139): 3.59 | Th-T fluorescence, mean of three wells (Supplementary Fig. 47, reading M140): 3.5958 | Th-T fluorescence, mean of three wells (Supplementary Fig. 47, reading M141): 3.577 | Th-T fluorescence, mean of three wells (Supplementary Fig. 47, reading M142): 3.567 | Th-T fluorescence, mean of three wells (Supplementary Fig. 47, reading M143): 3.559 | Th-T fluorescence, mean of three wells (Supplementary Fig. 47, reading M144): 3.573 | Th-T fluorescence, mean of three wells (Supplementary Fig. 47, reading M145): 3.546 | Th-T fluorescence, mean of three wells (Supplementary Fig. 47 source data, measurement M37 of time course): 3.411 | Th-T fluorescence, mean of three wells (Supplementary Fig. 47 source data, measurement M38 of time course): 3.42 | Th-T fluorescence, mean of three wells (Supplementary Fig. 47 source data, measurement M39 of time course): 3.449 | Th-T fluorescence, mean of three wells (Supplementary Fig. 47 source data, measurement M40 of time course): 3.484 | Th-T fluorescence, mean of three wells (Supplementary Fig. 47 source data, measurement M41 of time course): 3.495 | Th-T fluorescence, mean of three wells (Supplementary Fig. 47 source data, measurement M42 of time course): 3.511 | Th-T fluorescence, mean of three wells (Supplementary Fig. 47 source data, measurement M43 of time course): 3.5042 | Th-T fluorescence, mean of three wells (Supplementary Fig. 47 source data, measurement M44 of time course): 3.529 | Th-T fluorescence, mean of three wells (Supplementary Fig. 47 source data, measurement M45 of time course): 3.546 | Th-T fluorescence, mean of three wells (Supplementary Fig. 47 source data, measurement M46 of time course): 3.545 | Th-T fluorescence, mean of three wells (Supplementary Fig. 47 source data, measurement M47 of time course): 3.542 | Th-T fluorescence, mean of three wells (Supplementary Fig. 47 source data, measurement M48 of time course): 3.567 | Th-T fluorescence, mean of three wells (Supplementary Fig. 47 source data, measurement M49 of time course): 3.564 | Th-T fluorescence, mean of three wells (Supplementary Fig. 47 source data, measurement M50 of time course): 3.566 | Th-T fluorescence, mean of three wells (Supplementary Fig. 47 source data, measurement M51 of time course): 3.621 | Th-T fluorescence, mean of three wells (Supplementary Fig. 47 source data, measurement M52 of time course): 3.57 | Th-T fluorescence, mean of three wells (Supplementary Fig. 47 source data, measurement M53 of time course): 3.596 | Th-T fluorescence, mean of three wells (Supplementary Fig. 47 source data, measurement M54 of time course): 3.5732 | Th-T fluorescence, mean of three wells (Supplementary Fig. 47 source data, measurement M55 of time course): 3.592 | Th-T fluorescence, mean of three wells (Supplementary Fig. 47 source data, measurement M56 of time course): 3.662 | Th-T assay plate reading, mean of three wells (Supplementary Fig. 47) (measurement M1): 0.2658 | Th-T assay plate reading, mean of three wells (Supplementary Fig. 47) (measurement M2): 0.2823 | Th-T assay plate reading, mean of three wells (Supplementary Fig. 47) (measurement M3): 0.3173 | Th-T assay plate reading, mean of three wells (Supplementary Fig. 47) (measurement M4): 0.3889 | Th-T assay plate reading, mean of three wells (Supplementary Fig. 47) (measurement M5): 0.4637 | Th-T assay plate reading, mean of three wells (Supplementary Fig. 47) (measurement M6): 0.5676 | Th-T assay plate reading, mean of three wells (Supplementary Fig. 47) (measurement M7): 0.5832 | Th-T assay plate reading, mean of three wells (Supplementary Fig. 47) (measurement M8): 0.6497 | Th-T assay plate reading, mean of three wells (Supplementary Fig. 47) (measurement M9): 0.6755 | Th-T assay plate reading, mean of three wells (Supplementary Fig. 47) (measurement M10): 0.7219 | Th-T assay plate reading, mean of three wells (Supplementary Fig. 47) (measurement M11): 0.7495 | Th-T assay plate reading, mean of three wells (Supplementary Fig. 47) (measurement M12): 0.7862 | Th-T assay plate reading, mean of three wells (Supplementary Fig. 47) (measurement M13): 0.8322 | Th-T assay plate reading, mean of three wells (Supplementary Fig. 47) (measurement M14): 0.8734 | Th-T assay plate reading, mean of three wells (Supplementary Fig. 47) (measurement M15): 0.9399 | Th-T assay plate reading, mean of three wells (Supplementary Fig. 47) (measurement M16): 1.015 | Th-T fluorescence, mean of three wells (reading M17, Supplementary Fig. 47 source data): 1.1695 | Th-T fluorescence, mean of three wells (reading M18, Supplementary Fig. 47 source data): 1.449 | Th-T fluorescence, mean of three wells (reading M19, Supplementary Fig. 47 source data): 1.7884 | Th-T fluorescence, mean of three wells (reading M20, Supplementary Fig. 47 source data): 2.128 | Th-T fluorescence, mean of three wells (reading M21, Supplementary Fig. 47 source data): 2.459 | Th-T fluorescence, mean of three wells (reading M22, Supplementary Fig. 47 source data): 2.644 | Th-T fluorescence, mean of three wells (reading M23, Supplementary Fig. 47 source data): 2.778 | Th-T fluorescence, mean of three wells (reading M24, Supplementary Fig. 47 source data): 2.868 | Th-T fluorescence, mean of three wells (reading M25, Supplementary Fig. 47 source data): 2.94 | Th-T fluorescence, mean of three wells (reading M26, Supplementary Fig. 47 source data): 3.016 | Th-T fluorescence, mean of three wells (reading M27, Supplementary Fig. 47 source data): 3.079 | Th-T fluorescence, mean of three wells (reading M28, Supplementary Fig. 47 source data): 3.14 | Th-T fluorescence, mean of three wells (reading M29, Supplementary Fig. 47 source data): 3.171 | Th-T fluorescence, mean of three wells (reading M30, Supplementary Fig. 47 source data): 3.2173 | Th-T fluorescence, mean of three wells (reading M31, Supplementary Fig. 47 source data): 3.256 | Th-T fluorescence, mean of three wells (reading M32, Supplementary Fig. 47 source data): 3.313 | Th-T fluorescence, mean of three wells (reading M33, Supplementary Fig. 47 source data): 3.3097 | Th-T fluorescence, mean of three wells (reading M34, Supplementary Fig. 47 source data): 3.333 | Th-T fluorescence, mean of three wells (reading M35, Supplementary Fig. 47 source data): 3.364 | Th-T fluorescence, mean of three wells (reading M36, Supplementary Fig. 47 source data): 3.374 | Th-T fluorescence, mean of three wells (time course, reading M57): 3.606 | Th-T fluorescence, mean of three wells (time course, reading M58): 3.638 | Th-T fluorescence, mean of three wells (time course, reading M59): 3.598 | Th-T fluorescence, mean of three wells (time course, reading M60): 3.6035 | Th-T fluorescence, mean of three wells (time course, reading M61): 3.616 | Th-T fluorescence, mean of three wells (time course, reading M62): 3.642 | Th-T fluorescence, mean of three wells (time course, reading M63): 3.645 | Th-T fluorescence, mean of three wells (time course, reading M64): 3.635 | Th-T fluorescence, mean of three wells (time course, reading M65): 3.622 | Th-T fluorescence, mean of three wells (time course, reading M66): 3.629 | Th-T fluorescence, mean of three wells (time course, reading M67): 3.626 | Th-T fluorescence, mean of three wells (time-course reading M97, Supplementary Fig. 47 source data): 3.5997 | Th-T fluorescence, mean of three wells (time-course reading M98, Supplementary Fig. 47 source data): 3.623 | Th-T fluorescence, mean of three wells (time-course reading M99, Supplementary Fig. 47 source data): 3.625 | Th-T fluorescence, mean of three wells (time-course reading M100, Supplementary Fig. 47 source data): 3.601 | Th-T fluorescence, mean of three wells (time-course reading M101, Supplementary Fig. 47 source data): 3.5892 | Th-T fluorescence, mean of three wells (time-course reading M102, Supplementary Fig. 47 source data): 3.633 | Th-T fluorescence, mean of three wells (time-course reading M103, Supplementary Fig. 47 source data): 3.645 | Th-T fluorescence, mean of three wells (time-course reading M104, Supplementary Fig. 47 source data): 3.661 | Th-T fluorescence, mean of three wells (time-course reading M105, Supplementary Fig. 47 source data): 3.626 | Th-T fluorescence, mean of three wells (time-course reading M106, Supplementary Fig. 47 source data): 3.655 | Th-T fluorescence, mean of three wells (time-course reading M107, Supplementary Fig. 47 source data): 3.608 | Th-T fluorescence, mean of three wells (time-course reading M108, Supplementary Fig. 47 source data): 3.642 | Th-T fluorescence, mean of three wells (time-course reading M109, Supplementary Fig. 47 source data): 3.6107 | Th-T fluorescence, mean of three wells (time-course reading M110, Supplementary Fig. 47 source data): 3.642 | Th-T fluorescence, mean of three wells (time-course reading M111, Supplementary Fig. 47 source data): 3.621 | Th-T fluorescence, mean of three wells (time-course reading M112, Supplementary Fig. 47 source data): 3.604 | Th-T fluorescence, mean of three wells (time-course reading M113, Supplementary Fig. 47 source data): 3.595 | Th-T fluorescence, mean of three wells (time-course reading M114, Supplementary Fig. 47 source data): 3.63 | Th-T fluorescence, mean of three wells (time-course reading M115, Supplementary Fig. 47 source data): 3.6287 | Th-T fluorescence, mean of three wells (time-course reading M116, Supplementary Fig. 47 source data): 3.617
